From PubChem BioAssay (NCI)
Where “and” joins values, the source holds several entries; their conditions need not be identical. Identical values can stand only once.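 Values below derive from 48-hour exposures of cells grown in 96-well plates, with endpoints linearly interpolated between the two concentrations bracketing the appropriate inhibition level. GI50 marks 50% less growth. TGI: concentration producing complete growth inhibition.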

How the values were obtained:
Assay in all cases: NCI anticancer screen, dose series, 48 h
HCC-2998 colon = test system: HCC-2998 colon
MALME-3M melanoma = test system: MALME-3M melanoma
BT-549 breast = test system: BT-549 breast
IGROV1 ovarian = test system: IGROV1 ovarian
HT29 colon = test system: HT29 colon
RPMI-8226 leukemia = test system: RPMI-8226 leukemia
OVCAR-8 ovarian = test system: OVCAR-8 ovarian
K-562 leukemia = test system: K-562 leukemia
MDA-MB-435 = test system: MDA-MB-435
CCRF-CEM leukemia = test system: CCRF-CEM leukemia
SNB-19 CNS = test system: SNB-19 CNS
SK-MEL-5 melanoma = test system: SK-MEL-5 melanoma
A498 renal = test system: A498 renal

For CC(C)CCC[C@@H](C)C1CCC2[C@@H]3CCC4CC(CCC=C(c5cc(Cl)c(OC(=O)c6ccccc6)c(C(=O)O)c5)c5cc(Cl)c(OC(=O)c6ccccc6)c(C(=O)O)c5)CC[C@]4(C)C3CC[C@@]21C (some centres not stated), the TGI (HCC-2998 colon) was over 100 µM, the TGI (MALME-3M melanoma) was over 100 µM and the TGI (BT-549 breast) was over 100 µM. The TGI (IGROV1 ovarian) was 94.3 µM, the TGI (HT29 colon) was over 100 µM and the TGI (RPMI-8226 leukemia) was over 100 µM. For the same compound, the TGI (OVCAR-8 ovarian) was over 100 µM, the TGI (K-562 leukemia) was over 100 µM and the TGI (MDA-MB-435) was over 100 µM. For the same compound, the TGI (CCRF-CEM leukemia) was over 100 µM, the TGI (SNB-19 CNS) was over 100 µM and the TGI (SK-MEL-5 melanoma) was 78.8 µM. For the same compound, the TGI (A498 renal) was over 100 µM.
CCCCc1c2c(nc3c1CCC/C3=C\c1ccccc1)C(=O)C(CN(C)C)CC2 (configuration not stated) showed a TGI (HCC-2998 colon) of 54.7 µM, a TGI (MALME-3M melanoma) of 40.4 µM and a TGI (BT-549 breast) of 19.8 µM. It also gave a TGI (IGROV1 ovarian) of 36.9 µM, a TGI (HT29 colon) of 28.9 µM and a TGI (RPMI-8226 leukemia) of 31.8 µM. It also gave a TGI (OVCAR-8 ovarian) of 46.1 µM, a TGI (K-562 leukemia) of 21.5 µM and a TGI (MDA-MB-435) of 37.2 µM. It also gave a TGI (CCRF-CEM leukemia) of 33 µM, a TGI (SNB-19 CNS) of 32.6 µM and a TGI (SK-MEL-5 melanoma) of 30.9 µM. The TGI (A498 renal) was 33.2 µM.
With O=C1CC2(CCC(O)(c3ccc(Cl)cc3)C(C(=O)c3ccc(Cl)cc3)C2)C(=O)c2ccccc2N1 (configuration not stated) the TGI (HCC-2998 colon) was over 100 µM, the TGI (MALME-3M melanoma) was over 68.4 µM and the TGI (BT-549 breast) was 49.9 µM. The TGI (IGROV1 ovarian) was over 52.1 µM, the TGI (HT29 colon) was over 50 µM and the TGI (RPMI-8226 leukemia) was over 100 µM. The TGI (OVCAR-8 ovarian) was over 62.4 µM, the TGI (K-562 leukemia) was over 100 µM and the TGI (MDA-MB-435) was over 100 µM. It also gave a TGI (CCRF-CEM leukemia) of 26.6 µM, a TGI (SNB-19 CNS) of 6.71 µM and a TGI (SK-MEL-5 melanoma) of 43.4 µM. The TGI (A498 renal) was 52.6 µM.
For CC1NC(/C(=C/c2ccccc2O)NC(=O)c2ccccc2)OC1=O (configuration not stated), the TGI (HCC-2998 colon) was over 50 µM, the TGI (MALME-3M melanoma) was over 50 µM and the TGI (BT-549 breast) was over 50 µM. It also gave a TGI (IGROV1 ovarian) of over 50 µM, a TGI (HT29 colon) of over 50 µM and a TGI (RPMI-8226 leukemia) of over 50 µM. For the same compound, the TGI (OVCAR-8 ovarian) was over 50 µM, the TGI (K-562 leukemia) was over 50 µM and the TGI (MDA-MB-435) was over 50 µM. For the same compound, the TGI (CCRF-CEM leukemia) was over 50 µM, the TGI (SNB-19 CNS) was over 50 µM and the TGI (SK-MEL-5 melanoma) was over 50 µM. The TGI (A498 renal) was over 50 µM.
CC(C)/C=N\n1c(N)c(C#N)c(C#N)c1C(C)C gave a TGI (HCC-2998 colon) of 36.4 µM, a TGI (MALME-3M melanoma) of 98.1 µM and a TGI (BT-549 breast) of over 100 µM. The TGI (IGROV1 ovarian) was 77.8 µM, the TGI (HT29 colon) was over 100 µM and the TGI (RPMI-8226 leukemia) was 75.2 µM. For the same compound, the TGI (OVCAR-8 ovarian) was 63.7 µM, the TGI (K-562 leukemia) was over 100 µM and the TGI (MDA-MB-435) was 95.1 µM. For the same compound, the TGI (CCRF-CEM leukemia) was over 100 µM, the TGI (SNB-19 CNS) was over 100 µM and the TGI (SK-MEL-5 melanoma) was 34.1 µM. It also gave a TGI (A498 renal) of 69.5 µM.
With Cc1cc(Cl)ccc1N=NC(=O)NNc1ccc(Cl)cc1C the TGI (HCC-2998 colon) was 24.1 µM, the TGI (MALME-3M melanoma) was 37.9 µM and the TGI (BT-549 breast) was 32.2 µM. For the same compound, the TGI (IGROV1 ovarian) was 20.7 µM, the TGI (HT29 colon) was 36.4 µM and the TGI (RPMI-8226 leukemia) was 89.4 µM. For the same compound, the TGI (OVCAR-8 ovarian) was 27.2 µM, the TGI (K-562 leukemia) was 63 µM and the TGI (MDA-MB-435) was 39.7 µM. For the same compound, the TGI (CCRF-CEM leukemia) was 58.5 µM, the TGI (SNB-19 CNS) was 48.9 µM and the TGI (SK-MEL-5 melanoma) was 26.9 µM. The TGI (A498 renal) was 21.8 µM.
O=C1/C(=C\c2cccc(Oc3ccccc3)c2)SC(c2ccccc2)N1c1ccc(Cl)cc1 (configuration not stated) showed a TGI (HCC-2998 colon) of over 100 µM, a TGI (MALME-3M melanoma) of over 100 µM and a TGI (BT-549 breast) of over 100 µM. For the same compound, the TGI (HT29 colon) was over 100 µM, the TGI (RPMI-8226 leukemia) was 41.9 µM and the TGI (OVCAR-8 ovarian) was over 100 µM. It also gave a TGI (K-562 leukemia) of over 90.8 µM, a TGI (MDA-MB-435) of over 64.3 µM and a TGI (CCRF-CEM leukemia) of over 63.6 µM. The TGI (SNB-19 CNS) was over 100 µM, the TGI (SK-MEL-5 melanoma) was over 41.7 µM and the TGI (A498 renal) was over 100 µM.
CC(=O)O[C@H]1C(=O)[C@@]2(C)[C@H]([C@H](OC(=O)C3CCCCC3)[C@]3(O)C[C@H](OC(=O)[C@H](O)[C@@H](NC(=O)C4CCCCC4)C4CCCCC4)C(C)=C1C3(C)C)[C@]1(OC(C)=O)CO[C@@H]1C[C@@H]2O was tested, and the TGI (HCC-2998 colon) was 0.27 µM, the TGI (MALME-3M melanoma) was 4.96 µM and the TGI (BT-549 breast) was 0.778 µM. It also gave a TGI (IGROV1 ovarian) of 6.77 µM, a TGI (RPMI-8226 leukemia) of 3.67 µM and a TGI (OVCAR-8 ovarian) of 5.12 µM. For the same compound, the TGI (K-562 leukemia) was 8.96 µM, the TGI (MDA-MB-435) was 0.0105 µM and the TGI (CCRF-CEM leukemia) was 8.78 µM. The TGI (SNB-19 CNS) was 13.3 µM, the TGI (SK-MEL-5 melanoma) was 1.12 µM and the TGI (A498 renal) was 6.6 µM.
CCOC(=O)CCC(NC(=O)c1ccc(Nc2nc3cc(C(F)(F)F)ccc3nc2-c2ccccc2)cc1)C(=O)OCC (configuration not stated) gave a TGI (HCC-2998 colon) of over 100 µM, a TGI (MALME-3M melanoma) of over 100 µM and a TGI (BT-549 breast) of over 100 µM. The TGI (IGROV1 ovarian) was over 100 µM, the TGI (HT29 colon) was over 100 µM and the TGI (RPMI-8226 leukemia) was over 100 µM. It also gave a TGI (OVCAR-8 ovarian) of over 100 µM, a TGI (K-562 leukemia) of over 100 µM and a TGI (MDA-MB-435) of over 100 µM. The TGI (CCRF-CEM leukemia) was over 100 µM, the TGI (SNB-19 CNS) was over 100 µM and the TGI (SK-MEL-5 melanoma) was over 100 µM. The TGI (A498 renal) was over 100 µM.
For CC1(C)OCC(C2OC(N3O[C@H](CI)C[C@@H]3c3ccccc3)C3OC(C)(C)OC23)O1 (some centres not stated), the TGI (HCC-2998 colon) was over 100 µM, the TGI (MALME-3M melanoma) was over 100 µM and the TGI (BT-549 breast) was over 100 µM. For the same compound, the TGI (IGROV1 ovarian) was over 100 µM, the TGI (HT29 colon) was over 100 µM and the TGI (RPMI-8226 leukemia) was over 100 µM. For the same compound, the TGI (K-562 leukemia) was over 100 µM, the TGI (MDA-MB-435) was over 100 µM and the TGI (CCRF-CEM leukemia) was over 100 µM. The TGI (SNB-19 CNS) was over 100 µM, the TGI (SK-MEL-5 melanoma) was over 100 µM and the TGI (A498 renal) was over 100 µM.
COc1ccc(OC)c2nc3c(C(=O)NCCN(C)C)cccc3nc12 was tested, and the TGI (HCC-2998 colon) was 13.4 µM, the TGI (MALME-3M melanoma) was 27.3 µM and the TGI (BT-549 breast) was 33 µM. It also gave a TGI (IGROV1 ovarian) of over 69.5 µM, a TGI (HT29 colon) of over 44.3 µM and a TGI (RPMI-8226 leukemia) of over 24.2 µM. The TGI (OVCAR-8 ovarian) was 17.7 µM, the TGI (K-562 leukemia) was 23.2 µM and the TGI (MDA-MB-435) was 17.5 µM. For the same compound, the TGI (CCRF-CEM leukemia) was 11 µM, the TGI (SNB-19 CNS) was over 100 µM and the TGI (SK-MEL-5 melanoma) was 14.1 µM. For the same compound, the TGI (A498 renal) was 29.4 µM.
In the case of COc1cc2cc(C(=O)N3CC(CCl)c4ccc(NCCN)cc43)[nH]c2c(OC)c1OC (configuration not stated), the TGI (HCC-2998 colon) is reported as 0.709 µM, the TGI (MALME-3M melanoma) is reported as 0.391 µM and the TGI (BT-549 breast) is reported as 1.94 µM. The TGI (IGROV1 ovarian) was 0.375 µM, the TGI (HT29 colon) was 11.1 µM and the TGI (RPMI-8226 leukemia) was 1.17 µM. It also gave a TGI (OVCAR-8 ovarian) of 2.77 µM, a TGI (K-562 leukemia) of 0.572 µM and a TGI (MDA-MB-435) of 0.706 µM. The TGI (CCRF-CEM leukemia) was 2.24 µM, the TGI (SNB-19 CNS) was 3.13 µM and the TGI (SK-MEL-5 melanoma) was 0.263 µM. The TGI (A498 renal) was 0.339 µM.
In the case of Cn1c2nc3ccccc3c-2cc2ccccc21, the TGI (HCC-2998 colon) is reported as 17.6 µM, the GI50 (MALME-3M melanoma) is reported as 2.86 µM and 18.5 µM and the TGI (MALME-3M melanoma) is reported as 12.8 µM and > 100 µM. The TGI (BT-549 breast) was 9.09 µM, the TGI (IGROV1 ovarian) was 25.5 µM and > 100 µM and the TGI (HT29 colon) was 18.3 µM and 31.4 µM. For the same compound, the GI50 (RPMI-8226 leukemia) was 2.45 µM and 7.55 µM, the TGI (RPMI-8226 leukemia) was 10.2 µM and 39 µM and the GI50 (OVCAR-8 ovarian) was 2.48 µM and 7.18 µM. The TGI (OVCAR-8 ovarian) was 13.6 µM and > 100 µM, the TGI (K-562 leukemia) was > 100 µM and 39.7 µM and the TGI (MDA-MB-435) was > 46.4 µM and 19 µM. The TGI (CCRF-CEM leukemia) was > 43.5 µM and 25 µM, the GI50 (SNB-19 CNS) was 5.94 µM and 14.7 µM and the TGI (SNB-19 CNS) was over 100 µM. For the same compound, the GI50 (SK-MEL-5 melanoma) was 4 µM and 8.37 µM, the TGI (SK-MEL-5 melanoma) was 16.8 µM and 24 µM and the GI50 (A498 renal) was 5.12 µM and 18.4 µM. The TGI (A498 renal) was 17.1 µM and 43.5 µM.
